{"source": "paper PMC11881559", "about": "(Antimicrobial Agents and Chemotherapy, 2025)", "key": {"[1]": {"assay": "Preclinical toxicology, NOAEL in dogs", "type": "in vivo", "settings": "from dog NOAEL, at 60 kg body weight"}, "[2]": {"assay": "Drug-drug interaction (DDI) study with ritonavir, plasma PK", "settings": "200 mg in combination with ritonavir vs 200 mg alone"}, "wild-type strain": {"system": "wild-type strain", "settings": "in vitro, corrected by the plasma protein binding rate; cited from earlier work"}, "[3]": {"assay": "Exposure-response analysis of adverse events (logistic regression)", "set-up": "species or system human", "text": "For safety analysis, we also employed an exposure-response analysis method that included four binary outcomes: any adverse drug reaction (ADR), hypertriglyceridemia, hyperuricemia, and elevated creatinine levels. The exposure levels were derived by simulating individual parameter estimates from a population PK model ([23]), which generated dense sampling drug concentration-time curves. The noncompartmental analysis was subsequently performed using the PKNCA package in R software ver. 4.3 to calculate the area under the concentration-time curve over 24 h (AUC0-24) using the trapezoidal method and the maximum blood drug concentration within 24 h (Cmax).\nlogit(P(Yi=1))=β0+β1⋅log(Xi)\nIn this context, Xi represents the exposure (AUC0-24 and Cmax) of the ith subject, β0 denotes the intercept, and β1 indicates the coefficient for exposure. P(Yi = 1) represents the probability of AE occurrence, with logit referring to the logistic transformation."}, "[4]": {"assay": "Multiple ascending dose (MAD) study, plasma PK", "settings": "for t1/2: mean ± SD"}, "Omicron": {"system": "Omicron", "settings": "in vitro, corrected by the plasma protein binding rate; cited from earlier work"}, "[5]": {"assay": "Food-effect study, plasma PK", "settings": "for AUC0-t / AUC0-∞ / Cmax / MRT0-∞: mean (%CV); for t1/2: mean ± SD"}, "[6]": {"assay": "Preclinical toxicology, NOAEL in rats", "type": "in vivo", "settings": "from rat NOAEL, at 60 kg body weight"}, "[7]": {"settings": "dogs; preclinical animal studies; cited from earlier work"}}, "note": "“And” between values parts separate entries of the source, which are not always exact repeats. Equal values may be shown once."}
{"compound": "O=C(NC1CCCC1)C(=O)[C@H](C[C@@H]1CCNC1=O)NC(=O)[C@@H]1[C@H]2CCC[C@H]2CN1C(=O)[C@@H](NC(=O)C(F)(F)F)C1CCCCC1", "note": "[RAY1216, leritrelvir]", "values": [{"measurement": "human equivalent dose", "setting": "[1]", "value": "~21,000 mg/day"}, {"measurement": "mean AUC0-t increased to", "setting": "[2]", "value": 350.07, "unit": "%"}, {"measurement": "mean AUC0-∞ increased to", "setting": "[2]", "value": 171.00, "unit": "%"}, {"measurement": "mean C12h concentration increased by", "setting": "[2]", "value": 417.3, "unit": "ng/mL"}, {"measurement": "mean Cmax increased to", "setting": "[2]", "value": 348.03, "unit": "%"}, {"measurement": "antiviral 90% effective concentration (EC90)", "setting": "wild-type strain", "value": 0.165, "unit": "µg/mL"}, {"measurement": "exposure-response relationship of ADRs, hypertriglyceridemia, hyperuricemia, elevated creatinine with exposure (AUC0-24, Cmax)", "setting": "[3]", "value": "no significant dose-response relationship"}, {"measurement": "plasma concentration reached a steady state by", "setting": "[4]; 400 mg TID", "value": "≤ 2", "unit": "days"}, {"measurement": "AUC0-t", "setting": "[4]; 400 mg TID, Day 1, mean (%CV)", "value": "9,720 (36) ng·h/mL"}, {"measurement": "AUC0-tau", "setting": "[4]; 400 mg TID, Day 1, mean (%CV)", "value": "10,600 (30.4) ng·h/mL"}, {"measurement": "AUC0-∞", "setting": "[4]; 400 mg TID, Day 1, mean (%CV)", "value": "13,300 (32) ng·h/mL"}, {"measurement": "Cmax", "setting": "[4]; 400 mg TID, Day 1, mean (%CV)", "value": "3,450 (37.2) ng/mL"}, {"measurement": "MRT0-∞", "setting": "[4]; 400 mg TID, Day 1, mean (%CV)", "value": "3.93 (16.5) h"}, {"measurement": "t1/2", "setting": "[4]; 400 mg TID, Day 1", "value": "2.31 ± 0.465", "unit": "h"}, {"measurement": "Tmax", "setting": "[4]; 400 mg TID, Day 1, median (range)", "value": "1.5 (1.0, 2.0) h"}, {"measurement": "AUC0-t", "setting": "[4]; 400 mg TID, Day 5, mean (%CV)", "value": "15,400 (32.5) ng·h/mL"}, {"measurement": "AUC0-tau", "setting": "[4]; 400 mg TID, Day 5, mean (%CV)", "value": "10,000 (36) ng·h/mL"}, {"measurement": "AUC0-∞", "setting": "[4]; 400 mg TID, Day 5, mean (%CV)", "value": "15,500 (32.2) ng·h/mL"}, {"measurement": "Cmax", "setting": "[4]; 400 mg TID, Day 5, mean (%CV)", "value": "2,700 (32.3) ng/mL"}, {"measurement": "Cmin,ss", "setting": "[4]; 400 mg TID, Day 5, mean (%CV)", "value": "382 ng/mL and 382 (44.9) ng/mL"}, {"measurement": "MRT0-∞", "setting": "[4]; 400 mg TID, Day 5, mean (%CV)", "value": "6.23 (18.9) h"}, {"measurement": "t1/2", "setting": "[4]; 400 mg TID, Day 5", "value": "9.61 ± 2.26", "unit": "h"}, {"measurement": "Tmax", "setting": "[4]; 400 mg TID, Day 5, median (range)", "value": "1.5 (1.0, 3.0) h"}, {"measurement": "Tmax", "setting": "[4]; 400 mg TID, continuous administration", "value": 1.5, "unit": "h"}, {"measurement": "plasma concentrations reached a steady state by", "setting": "[4]; 300, 500 or 700 mg with 100 mg ritonavir BID", "value": "≤ 2", "unit": "days"}, {"measurement": "antiviral 90% effective concentration (EC90)", "setting": "Omicron", "value": 0.2097, "unit": "µg/mL"}, {"measurement": "Tmax", "setting": "[5]; 500 mg alongside 100 mg ritonavir, fasting", "value": 2.5, "unit": "h"}, {"measurement": "Tmax", "setting": "[5]; 500 mg alongside 100 mg ritonavir, high-fat food", "value": 3.0, "unit": "h"}, {"measurement": "AUC0-t", "setting": "[5]; 800 mg, Fast", "value": "22,700 (38.9) ng·h/mL"}, {"measurement": "AUC0-∞", "setting": "[5]; 800 mg, Fast", "value": "23,000 (38.9) ng·h/mL"}, {"measurement": "Cmax", "setting": "[5]; 800 mg, Fast", "value": "4,760 (31.6) ng/mL"}, {"measurement": "MRT0-∞", "setting": "[5]; 800 mg, Fast", "value": "7.01 (26.4) h"}, {"measurement": "t1/2", "setting": "[5]; 800 mg, Fast", "value": "7.72 ± 4.46", "unit": "h"}, {"measurement": "Tmax", "setting": "[5]; 800 mg, Fast, median (range)", "value": "1.5 (0.5, 3.0) h"}, {"measurement": "AUC0-t", "setting": "[5]; 800 mg, Fed", "value": "34,100 (28) ng·h/mL"}, {"measurement": "AUC0-∞", "setting": "[5]; 800 mg, Fed", "value": "34,200 (27.9) ng·h/mL"}, {"measurement": "Cmax", "setting": "[5]; 800 mg, Fed", "value": "8,510 (27.6) ng/mL"}, {"measurement": "MRT0-∞", "setting": "[5]; 800 mg, Fed", "value": "5.96 (22.2) h"}, {"measurement": "t1/2", "setting": "[5]; 800 mg, Fed", "value": "7.08 ± 3.61", "unit": "h"}, {"measurement": "Tmax", "setting": "[5]; 800 mg, Fed, median (range)", "value": "3.0 (1.0, 6.0) h"}, {"measurement": "Tmax delayed by", "setting": "[5]; 800 mg, feeding vs fasting condition", "value": 1.5, "unit": "h"}, {"measurement": "human equivalent dose", "setting": "[6]", "value": "approximately 10,800 mg/day"}, {"measurement": "no-observed-adverse-effect level (NOAEL)", "setting": "[7]", "value": 600, "unit": "mg/kg/day"}]}
